Source: patent US20070004660A1, “Synergistic Modulation of Flt3 Kinase Using Alkylquinolines and Alkylquinazolines” (priority 2005, published 2007)
pIC50: −log10 of the molar value. Structures can show the parent of a compound that is named as a salt.

Target: T1, isolated kinase domain of the human FLT3 receptor (a.a. 571-993) (Homo sapiens, UniProt P36888)
T1 construct: human FLT3 receptor (a.a. 571-993)
T1 sequence (P36888 571-993): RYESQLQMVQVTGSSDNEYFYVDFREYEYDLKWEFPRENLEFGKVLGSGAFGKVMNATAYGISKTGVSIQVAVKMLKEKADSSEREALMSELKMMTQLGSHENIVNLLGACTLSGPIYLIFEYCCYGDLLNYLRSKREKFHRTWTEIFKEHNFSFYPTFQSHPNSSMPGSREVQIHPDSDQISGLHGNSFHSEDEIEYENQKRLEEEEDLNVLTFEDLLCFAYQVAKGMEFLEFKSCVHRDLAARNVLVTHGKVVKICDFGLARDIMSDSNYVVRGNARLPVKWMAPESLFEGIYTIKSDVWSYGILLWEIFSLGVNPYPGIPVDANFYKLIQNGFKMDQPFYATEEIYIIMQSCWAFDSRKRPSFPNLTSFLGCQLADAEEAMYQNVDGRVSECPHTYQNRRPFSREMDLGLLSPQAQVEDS
Experiment: FLT3 fluorescence polarization kinase assay
Format: biochemical
Settings: 150 uM ATP; uncertainty ±10%

Row | SMILES | pIC50
1 | CN(C)[C@@H]1CCN(c2ccc3c(C4CCN(C(=O)Nc5ccc(N6CCOCC6)cc5)CC4)ncnc3c2)C1 [Example 150, (R)-4-[7-(3-Dimethylamino-pyrrolidin-1-yl)-quinazolin-4-yl]-piperidine-1-carboxylic acid (4-morpholin-4-yl-phenyl)-amide] | 7.85
2 | O=C(Nc1ccc(N2CCCC2)cc1)N1CCC(c2ncnc3cc(OCC4CCOCC4)ccc23)CC1 [Compound 188, 4-[7-(Tetrahydro-pyran-4-ylmethoxy)-quinazolin-4-yl]-piperidine-1-carboxylic acid (4-pyrrolidin-1-yl-phenyl)-amide] | 6.41
3 | O=C(Nc1ccc(N2CCCC2)cc1)N1CCC(c2ncnc3cc(N4CCN(c5ccccn5)CC4)ccc23)CC1 [Compound 192, 4-[7-(4-Pyridin-2-yl-piperazin-1-yl)-quinazolin-4-yl]-piperidine-1-carboxylic acid (4-pyrrolidin-1-yl-phenyl)-amide] | 8.70
4 | O=C(Nc1ccc(N2CCOCC2)cc1)N1CCC(c2ncnc3cc(N4CCNCC4)ccc23)CC1 [Example 140, 4-(7-Piperazin-1-yl-quinazolin-4-yl)-piperidine-1-carboxylic acid (4-morpholin-4-yl-phenyl)-amide] | 7.35
5 | O=C(Nc1ccc(N2CCCC2)cc1)N1CCC(c2ncnc3cc(O[C@H]4CCOC4)ccc23)CC1 [Compound 190, (S)-4-[7-(Tetrahydro-furan-3-yloxy)-quinazolin-4-yl]-piperidine-1-carboxylic acid (4-pyrrolidin-1-yl-phenyl)-amide] | 6.56
6 | O=C(Nc1ccc(N2CCCC2)cc1)N1CCC(c2ncnc3cc(O[C@@H]4CCOC4)ccc23)CC1 [Compound 191, (R)-4-[7-(Tetrahydro-furan-3-yloxy)-quinazolin-4-yl]-piperidine-1-carboxylic acid (4-pyrrolidin-1-yl-phenyl)-amide] | 6.67
7 | COc1cc2ncnc(C3CCN(C(=O)Nc4ccc(N5CCOCC5)cc4)CC3)c2cc1OC [Example 18, 4-(6,7-Dimethoxy-quinazolin-4-yl)-piperidine-1-carboxylic acid (4-morpholin-4-yl-phenyl)-amide] | 7.21
8 | CS(=O)(=O)N1CCN(CCCOc2ccc3c(C4CCN(C(=O)Nc5ccc(N6CCCC6)cc5)CC4)ncnc3c2)CC1 [Example 164, 4-{7-[3-(4-Methanesulfonyl-piperazin-1-yl)-propoxy]-quinazolin-4-yl}-piperidine-1-carboxylic acid (4-pyrrolidin-1-yl-phenyl)-amide] | 7.60
9 | CC(=O)N1CCN(c2ccc3c(C4CCN(C(=O)Nc5ccc(N6CCCC6)cc5)CC4)ncnc3c2)CC1 [Example 166, 4-[7-(4-Acetyl-piperazin-1-yl)-quinazolin-4-yl]-piperidine-1-carboxylic acid (4-pyrrolidin-1-yl-phenyl)-amide] | 8.05
10 | COc1cc2ncnc(C3CCN(C(=O)Nc4ccc(OC5CCC5)nc4)CC3)c2cc1OC [Example 17, 4-(6,7-Dimethoxy-quinazolin-4-yl)-piperidine-1-carboxylic acid (6-cyclobutoxy-pyridin-3-yl)-amide] | 7.80
11 | CN1CCC[C@H]1COc1ccc2c(C3CCN(C(=O)Nc4ccc(N5CCCC5)cc4)CC3)ncnc2c1 [Example 151, (S)-4-[7-(1-Methyl-pyrrolidin-2-ylmethoxy)-quinazolin-4-yl]-piperidine-1-carboxylic acid (4-pyrrolidin-1-yl-phenyl)-amide] | 7.21
12 | CN1CCCN(c2ccc3c(C4CCN(C(=O)Nc5ccc(N6CCOCC6)cc5)CC4)ncnc3c2)CC1 [Example 138, 4-[7-(4-Methyl-[1,4]diazepan-1-yl)-quinazolin-4-yl]-piperidine-1-carboxylic acid (4-morpholin-4-yl-phenyl)-amide] | 7.55
13 | CC(C)Oc1ccc(NC(=O)N2CCC(c3ncnc4ccc(N5CCN(C)CC5)cc34)CC2)cc1 [Example 131, 4-[6-(4-Methyl-piperazin-1-yl)-quinazolin-4-yl]-piperidine-1-carboxylic acid (4-isopropoxy-phenyl)-amide] | 6.36

More lines, in order of rising pIC50, values ahead:

Row | pIC50 | SMILES
14 | 5.36 | COc1cc2ncnc(C3CCN(C(=O)Nc4ccc(CO)cc4)CC3)c2cc1OC [Example 22, 4-(6,7-Dimethoxy-quinazolin-4-yl)-piperidine-1-carboxylic acid (4-hydroxymethyl-phenyl)-amide]
15 | 7.19 | O=C(Nc1ccc(N2CCOCC2)cc1)N1CCC(c2ncnc3cc(N4CCOCC4)ccc23)CC1 [Example 145, 4-(7-Morpholin-4-yl-quinazolin-4-yl)-piperidine-1-carboxylic acid (4-morpholin-4-yl-phenyl)-amide]
16 | 7.34 | COc1cc2ncnc(C3CCN(C(=O)Nc4ccc(OC(C)C)cc4)CC3)c2cc1OC [Example 1, 4-(6,7-Dimethoxy-quinazolin-4-yl)-piperidine-1-carboxylic acid (4-isopropoxy-phenyl)-amide hydrochloride]
17 | 7.49 | O=C(Nc1ccc(N2CCCC2)cc1)N1CCC(c2ncnc3cc(OCCO)ccc23)CC1 [Example 169, 4-[7-(2-Hydroxy-ethoxy)-quinazolin-4-yl]-piperidine-1-carboxylic acid (4-pyrrolidin-1-yl-phenyl)-amide]
18 | 7.89 | CN(C)CC(=O)N1CCN(c2ccc3c(C4CCN(C(=O)Nc5ccc(N6CCOCC6)cc5)CC4)ncnc3c2)CC1 [Example 144, 4-{7-[4-(2-Dimethylamino-acetyl)-piperazin-1-yl]-quinazolin-4-yl}-piperidine-1-carboxylic acid (4-morpholin-4-yl-phenyl)-amide]
19 | 8.22 | CS(=O)(=O)N1CCN(c2ccc3c(C4CCN(C(=O)Nc5ccc(N6CCOCC6)cc5)CC4)ncnc3c2)CC1 [Example 142, 4-[7-(4-Methanesulfonyl-piperazin-1-yl)-quinazolin-4-yl]-piperidine-1-carboxylic acid (4-morpholin-4-yl-phenyl)-amide]
20 | 8.40 | O=C(Nc1ccc(N2CCCC2)cc1)N1CCC(c2ncnc3cc(N4CCN(c5ncccn5)CC4)ccc23)CC1 [Compound 193, 4-[7-(4-Pyrimidin-2-yl-piperazin-1-yl)-quinazolin-4-yl]-piperidine-1-carboxylic acid (4-pyrrolidin-1-yl-phenyl)-amide]
